This is an account of results in patent publication US20240148722A1, “SMALL MOLECULES THAT BIND TO TDP-43 FOR THE TREATMENT OF ALS AND RELATED DISORDERS” (Biohaven Therapeutics Ltd., priority 2021, published 2024).

The target in experiment [1] is T1, TDP-43 (Homo sapiens, UniProt Q13148). Particulars: cited from earlier work.
Experiment [2] concerns the target T1, TDP-43. The note with it: using bt-(TG)6 and not bt-TAR32; Biochimie, 2012, 94, 1974-1981; cited from earlier work.
Experiment [3] has as its target TDP-43 1-260 (Homo sapiens, UniProt Q13148). Put plainly: TDP-43 alpha-screen assay with bt-TAR32. The experiment is classed as binding. Particulars: bt-TAR32 0.125 nM; 3 h at room temperature; read-out: Activity (μM) in the TDP-43-DNA alpha-screen assay. Background: Bead proximity is the source of the signal in Alpha formats.
Description: Alpha-screen assay. […] Briefly, assays contained TDP-43 1-260 (15 ng/mL, 0.27 nM), 10 mg/mL of both streptavidin donor beads and anti-GST acceptor beads with various concentrations of bt-TAR32 (˜18 to +14 in the HIV1 LTR) and test compound in a final volume of 20 mL of 25 mM Tris, 0.1% CHAPS, pH 7.4 in white, opaque low volume 384-well plates. After 3 h incubation at room temperature, the AlphaScreen signal was measured using a Synergy 2 plate reader (Biotek, Winooski, VT). […] Nonspecific binding was determined in the presence of 10 mM bt-TDP43 and was less than 10% of total binding. IC50 values were obtained from nonlinear regression fits of the data to a one-site binding model using Graph Pad Prism, version 5.0 (GraphPad Software, San Diego, CA). Comparison of competitive inhibition and mixed type inhibition models were evaluated using the F-test on global fits of the data also in Graph Pad Prism, version 5.0.

Chain of TDP-43 1-260 (Q13148 1-260): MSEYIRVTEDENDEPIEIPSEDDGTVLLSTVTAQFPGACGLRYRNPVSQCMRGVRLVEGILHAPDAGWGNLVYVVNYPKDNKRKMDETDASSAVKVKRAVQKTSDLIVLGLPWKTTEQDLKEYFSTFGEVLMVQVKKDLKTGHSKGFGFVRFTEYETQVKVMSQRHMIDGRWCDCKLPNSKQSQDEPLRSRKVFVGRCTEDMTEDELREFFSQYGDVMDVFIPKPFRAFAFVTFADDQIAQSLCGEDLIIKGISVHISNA
T1 sequence (Q13148 whole entry): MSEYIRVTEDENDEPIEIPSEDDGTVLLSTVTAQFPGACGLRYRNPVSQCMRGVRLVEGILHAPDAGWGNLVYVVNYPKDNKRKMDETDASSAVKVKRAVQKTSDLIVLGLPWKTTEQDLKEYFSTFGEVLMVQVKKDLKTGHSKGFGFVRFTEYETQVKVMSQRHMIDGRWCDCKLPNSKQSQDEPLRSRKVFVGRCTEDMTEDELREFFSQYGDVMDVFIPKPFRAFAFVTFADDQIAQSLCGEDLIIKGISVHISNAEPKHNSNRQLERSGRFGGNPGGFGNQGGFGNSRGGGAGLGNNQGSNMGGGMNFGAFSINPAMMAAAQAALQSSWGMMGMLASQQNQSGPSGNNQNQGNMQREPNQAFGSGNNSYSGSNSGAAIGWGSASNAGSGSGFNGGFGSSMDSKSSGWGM

Turning to `COc1ccc(-c2cc(NCCCN(C)C)c3ccccc3n2)cc1` [Compound I], in experiment [1], the “caspase-7 cleavage of TDP-43” value is “promoted”. In addition, the “activity in a TDP-43 alpha-screen” value in experiment [2] is listed as “active”.

On to `COc1ccc(-c2cc(NCCCN(C)C)cc(-c3ccc(OCCCN(C)C)nc3)n2)cc1` [Example 81], for which, in experiment [3], the IC50 was found to be 0.72 µM. On the same count and under the same terms, the value for `CN(C)CCCNc1cc(-c2ccc(OCCCN3CCCC3)cc2)nc2ccccc12` [Example 82] was 0.11 µM.

On to `COc1cc2c(NCCCN(C)C)ccnc2cc1OCCN1CCCC1` [Example 83], for which the IC50 in experiment [3] came to 0.19 µM. Consider `CN(C)CCCNc1cc(-c2ccc(OCCn3cccn3)cc2)nc2ccccc12` [Example 84], for which the IC50 in experiment [3] stood at 0.55 µM. For the compound `N[C@H]1C[C@H](Nc2cc(-c3ccc(N4CCNCC4)cc3)nc3ccsc23)C1` [Example 85, (1r,3r)-N1-(5-(4-(piperazin-1-yl)phenyl)thieno[3,2-b]pyridin-7-yl)cyclobutane-1,3-diamine], in experiment [3], the IC50 was 0.16 µM. On the same count and under the same terms, the value for `NCCCNc1cc(-c2ccc(N3CCNCC3)cc2)nc2ccsc12` [Example 86] was 0.2 µM; that for `NCCCNc1n[nH]c2cc(-c3ccc(N4CCNCC4)cc3)ccc12` [Example 87] was 0.15 µM.

With `COc1ccc(-c2cc(N[C@H]3C[C@H](N)C3)cc(-c3cccc(OCCN4CCCC4)c3)n2)cc1` [Example 88, trans-N1-(2-(3-(2-(pyrrolidin-1-yl)ethoxy)phenyl)-6-(4-methoxyphenyl)pyridin-4-yl)cyclobutane-1,3-diamine], the IC50 in experiment [3] came out at 0.18 µM. Same read-out and setting: the value for `COc1ccc(-c2cc(NCCCN(C)C)cc(-c3cccc(OCCCN(C)C)c3)n2)cc1` [Example 89, 2-(3-(3-(dimethylamino)propoxy)phenyl)-N-(3-(dimethylamino)propyl)-6-(4-methoxyphenyl)pyridin-4-amine] was 0.17 µM. For `COc1ccc(-c2cc(N[C@H]3CC[C@H](N)CC3)cc(-c3cccc(OCCN4CCCC4)c3)n2)cc1` [Example 90], the IC50 in experiment [3] worked out at 0.09 µM. On the same count and under the same terms, the value for `COc1ccc(-c2cc(NCCCN(C)C)cc(-c3cccc(OCCN4CCCC4)c3)n2)cc1` [Example 91] was 0.16 µM. The same measure, in the same setting: as for `COc1ccc(-c2cc(NCCCN(C)C)cc(-c3cccc(OCCN(C)C)c3)n2)cc1` [Example 92], the figure is 0.34 µM; as for `COc1ccc(-c2cc(N[C@H]3CC[C@H](N)CC3)cc(-c3cccc(OCCN(C)C)c3)n2)cc1` [Example 93, trans-N1-(2-(3-(2-(dimethylamino)ethoxy)phenyl)-6-(4-methoxyphenyl)pyridin-4-yl)cyclohexane-1,4-diamine], 0.11 µM; as for `COc1ccc(-c2cc(N[C@H]3C[C@H](N)C3)cc(-c3ccc(CN(C)CCN(C)C)o3)n2)cc1` [Example 96, N1-{2-[5-({[2-(dimethylamino)ethyl](methyl)amino}methyl)furan-2-yl]-6-(4-methoxyphenyl)pyridin-4-yl}cyclobutane-1,3-diamine], 2.4 µM. The same measure, in the same setting: the value for “Cis-N1-(2-(3-(2-(pyrrolidin-1-yl)ethoxy)phenyl)-6-(4-methoxyphenyl)pyridin-4-yl)cyclobutane-1,3-diamine [Example 94]” was 0.49 µM. For the compound “Ethyl 4-(2-(4-methoxyphenyl)-6-(4-(piperazin-1-yl)phenyl)pyridin-4-ylamino)piperidine-1-carboxylate [Example 49]”, the IC50 in experiment [3] stood at 5.78 µM. Same read-out and setting: the value for “N^1-(4-(4-methoxyphenyl)-6-(4-(piperazin-1-yl)phenyl)pyridin-2-yl)-N^3,N^3-dimethylpropane-1,3-diamine [Example 79]” was 1.09 µM.
